Target: T1, Human ALDH3A1 (Homo sapiens, UniProt P30838)
T1 sequence (P30838 1-453): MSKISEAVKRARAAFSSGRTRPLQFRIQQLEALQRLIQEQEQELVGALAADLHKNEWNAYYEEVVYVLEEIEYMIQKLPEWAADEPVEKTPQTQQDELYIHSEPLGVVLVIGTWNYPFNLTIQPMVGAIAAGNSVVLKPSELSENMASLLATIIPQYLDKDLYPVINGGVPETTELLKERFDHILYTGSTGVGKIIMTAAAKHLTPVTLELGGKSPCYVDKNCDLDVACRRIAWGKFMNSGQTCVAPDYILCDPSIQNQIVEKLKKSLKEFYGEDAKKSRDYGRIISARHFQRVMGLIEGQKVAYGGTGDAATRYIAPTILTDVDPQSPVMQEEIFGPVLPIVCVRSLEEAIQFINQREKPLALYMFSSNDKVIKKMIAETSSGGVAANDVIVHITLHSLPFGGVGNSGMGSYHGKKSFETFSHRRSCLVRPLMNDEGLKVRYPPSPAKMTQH
Assay: ALDH3A1 biochemical assay (benzaldehyde/NADP+, diaphorase-resazurin readout, 1,536-well)
Conditions: for CC-v2: curve class

Compound	AC50 [µM]	Efficacy (Table S1, primary screen)	CC-v2 (Table S1, primary screen)	Efficacy (Table S2, in-house analogs)	CC-v2 (Table S2, in-house analogs)	Efficacy (ALDH3A1 biochemical) [%]	IC50 (ALDH3A1 biochemical IC50, text) [µM]	LLE (Table S7, pAC50 − cLogP)
COc1ccc(OCc2cc(C(=O)NC(CO)C(C)C)no2)c2ccccc12 (stereo not drawn) [NCGC00427669-01]	3.98	-69.95	-1.2	–	–	–	–	–
COc1ccc(CCC(=O)N2CCc3[nH]c(=O)c(C#N)cc3C2)c(OC)c1OC [NCGC00527314-01]	35.5	-47.14	-2.4	–	–	–	–	–
COc1ccc(NC2CCCN(C(=O)c3cn(CCCN)nn3)C2)cc1 (stereo not drawn) [NCGC00439852-01]	0.89	-61.76	-1.2	–	–	–	–	–
Fc1ccc2[nH]c(CO[C@H]3CN(Cc4ccc5ccccc5n4)C[C@H]3F)nc2c1 [NCGC00393065-01]	0.45	–	–	-92.90	-1.1	–	–	–
COc1cccc(NC(=O)O[C@@H]2CO[C@H]3[C@@H]2OC[C@@H]3Nc2nccc(-c3ccccc3)n2)c1 [NCGC00398388-01]	28.2	-30.64	-2.4	–	–	–	–	–
COC(=O)c1ccc2nc(CO[C@H]3CN(C(=O)C4CCOCC4)C[C@H]3F)[nH]c2c1 [NCGC00392526-01]	28.2	–	–	-67.89	-3	–	–	–
COc1cccc(-c2cc(C(=O)NCc3cnn(C)c3)c3c(c2)N(C)CCO3)c1OC [NCGC00417015-01]	17.8	–	–	-40.16	-2.2	–	–	–
COCc1nc(N2CCC(Cn3cccn3)CC2)cc([C@H]2C[C@H](N)C2)n1 [NCGC00422389-01]	15.8	-81.78	-3	–	–	–	–	–
CN1CCOc2c(C(=O)NCCC(N)=O)cc(-c3ccc(CO)cc3)cc21 [NCGC00417044-01]	17.8	–	–	-40.76	-2.2	–	–	–
COC(=O)c1ccc2nc(CO[C@H]3CN(C(C)=O)C[C@H]3F)[nH]c2c1 [NCGC00392964-01]	0.32	–	–	-32.94	-1.2	–	–	–
COc1cccc(CN2CC(Oc3ccccc3C(=O)NC3CC3)C2)c1 [NCGC00458073-01]	39.8	-51.44	-3	–	–	–	–	–
C[S+](=O)([O-])c1ccc(N2CCN(CC3(O)CNCCOC3)CC2)c(F)c1 (stereo not drawn) [NCGC00435271-01]	20	-66.49	-3	–	–	–	–	–
CN1CCOc2c(C(=O)NCCC(N)=O)cc(-c3ccc(O)c(F)c3)cc21 [NCGC00417031-01]	14.1	–	–	-80.78	-2.2	–	–	–
Cc1nn(Cc2ccccc2)c(C)c1[C@@H]1C=C[C@@H](NC(=O)c2ccco2)C1 [NCGC00397524-03]	3.16	–	–	-51.19	-1.2	–	–	–
CC(O)c1ccc(CCNC(=O)C(=O)Nc2cc3c4c(c2)CC(=O)N4CCC3)s1 (stereo not drawn) [NCGC00529385-01]	11.2	-31.52	-2.2	–	–	–	–	–
Cc1cc(C)c(C)c([S+](=O)([O-])NCCC(=O)N2CCc3[nH]c(=O)c(C#N)cc3C2)c1C [NCGC00527311-01]	28.2	-52.11	-2.2	–	–	–	–	–
O=C(CCc1cc2n(n1)CCCNC2)Nc1ccc2c(c1)OCCO2 [NCGC00441819-01]	15.8	-25.02	-2.4	–	–	–	–	–

Compound	AC50 [µM]	Efficacy (Table S1, primary screen)	CC-v2 (Table S1, primary screen)	Efficacy (Table S2, in-house analogs)	CC-v2 (Table S2, in-house analogs)	Efficacy (ALDH3A1 biochemical) [%]	IC50 (ALDH3A1 biochemical IC50, text) [µM]	LLE (Table S7, pAC50 − cLogP)
COc1ccc(NC(=O)N[C@H]2C[C@@H](C(=O)N[C@@H](Cc3cccs3)C(N)=O)N(C(=O)CSC)C2)cc1 [NCGC00398253-01]	14.1	-63.09	-2.2	–	–	–	–	–
COCc1noc(-c2ccc(NC[C@H]3CCc4ccccc4O3)nc2)n1 [NCGC00428876-01]	31.6	-39.16	-2.2	–	–	–	–	–
O=C(NCC(F)(F)F)c1cc(C2CCN(C(=O)c3cc(-c4ccco4)n[nH]3)CC2)n[nH]1 [NCGC00528999-01]	14.1	-59.29	-2.4	–	–	–	–	–
CNC(=O)c1cccc(-c2cnc(Nc3cncnc3)c3c2CCO3)c1 [NCGC00412778-01]	44.7	-38.45	-2.2	–	–	–	–	–
COC(=O)c1ccc2nc(CO[C@H]3CN(C4CCOCC4)C[C@H]3F)[nH]c2c1 [NCGC00392980-01]	0.18	–	–	-21.56	-1.4	–	–	–
CN(C)CC1(O)CCN(C(=O)Cn2cc(C(=O)C3CC3)c3ccccc32)C1 (stereo not drawn) [NCGC00438461-01]	35.5	-41.61	-2.4	–	–	–	–	–
O=C(NCc1nc(-c2ccccc2)no1)C1CCN(c2cc(-n3cncn3)ncn2)CC1 [NCGC00526793-01]	35.5	-44.11	-2.2	–	–	–	–	–
C=CCOc1c(OC)ccc2c1CN(Cc1ccccc1)C(=O)CCN2CC(O)COc1ccc(OC)cc1 (stereo not drawn) [NCGC00501442-01]	8.91	-29.51	-1.4	–	–	–	–	–
C[S+](=O)([O-])c1ccc(CN2C[C@H](O)C[C@H]2c2nc(C3CC3)no2)cc1 [NCGC00396353-01]	35.5	-44.61	-2.2	–	–	–	–	–
COCCNC(=O)c1ccc2c(c1)N(C)C(CC(=O)NCC(C)C)CO2 (stereo not drawn) [NCGC00429361-01]	28.2	-36.95	-3	–	–	–	–	–
COC(=O)c1ccc2nc(CO[C@H]3CN(Cc4ccc5ccccc5n4)C[C@H]3F)[nH]c2c1 [NCGC00391159-01]	0.79	–	–	-109.85	-1.1	–	–	–
Cc1nn(Cc2ccccc2)c(C)c1[C@@H]1C=C[C@@H](NC(=O)Nc2ccccc2)C1 [NCGC00400191-01]	22.4	–	–	-83.17	-2.2	–	–	–
CNC(=O)c1cccc(-c2cnc3[nH]cc(CC(=O)Nc4ccccc4C)c3c2)c1 [NCGC00412345-01]	5.62	–	–	-73.33	-2.4	–	–	–
O=C(Nc1ccc2c(c1)OCCO2)N1CCC(Cc2nnc(-c3ccncc3)[nH]2)C1 (stereo not drawn) [NCGC00438506-01]	5.62	-41.70	-2.4	–	–	–	–	–
CC(=O)Nc1cccc(-c2cc(C(=O)NCc3cnn(C)c3)c3c(c2)N(C)CCO3)c1 [NCGC00417085-01]	28.2	–	–	-77.64	-2.2	–	–	–
Cc1cc(OC2CN(C(=O)c3cc(-c4ccc(F)cc4)n[nH]3)C2)n2ncnc2n1 [NCGC00531207-01]	14.1	-93.27	-2.3	–	–	–	–	–

Results, then the compound that gave them:

AC50 [µM]	Efficacy (Table S1, primary screen)	CC-v2 (Table S1, primary screen)	Efficacy (Table S2, in-house analogs)	CC-v2 (Table S2, in-house analogs)	Efficacy (ALDH3A1 biochemical) [%]	IC50 (ALDH3A1 biochemical IC50, text) [µM]	LLE (Table S7, pAC50 − cLogP)	Compound
2.51	-29.34	-1.4	–	–	–	–	–	CCOc1ccc(C(=O)NC2CCN(c3cc(-c4ccc(OC)cc4)n[nH]3)C2)cc1OCC (stereo not drawn) [NCGC00438182-01]
2	–	–	-75.40	-1.2	–	–	–	O=C(NCc1ccccc1)c1csc(N2CCN(c3ccc(Cl)cc3)CC2)n1 [NCGC00430698-01]
1.41	–	–	-74.85	-1.2	74	1.41	2.143	Cc1cccc(CNC(=O)c2csc(N3CCN(c4ccccc4)CC3)n2)c1 [NCGC00430642-01]
3.55	–	–	-54.85	-1.2	–	–	–	COc1ccc(N2CCN(c3nc(C(=O)NCc4ccccc4C)cs3)CC2)cc1 [NCGC00430666-01]
15.8	–	–	-42.05	-2.4	–	–	–	O=C(NC1CCCC1)c1csc(N2CCN(c3cccc(Cl)c3)CC2)n1 [NCGC00430704-01]
2	–	–	-64.54	-1.2	–	–	–	O=C(NCc1ccc(F)cc1)c1csc(N2CCN(c3ccccc3F)CC2)n1 [NCGC00430726-01]
22.4	–	–	-46.23	-2.2	–	–	–	COc1ccc(-n2nc(C)c([C@@H]3C=C[C@@H](NCc4cccc(Cl)c4)C3)c2C)cc1 [NCGC00391691-01]
7.08	–	–	-65.35	-1.2	–	–	–	O=C(NCc1cccs1)c1csc(N2CCN(c3ccc(F)cc3)CC2)n1 [NCGC00430736-01]
15.8	-43.09	-2.4	–	–	–	–	–	COc1ccc(CCN2Cc3cc(NC(=O)Cc4cccs4)ccc3OCC2=O)cc1 [NCGC00475032-01]
15.8	-45.94	-2.2	–	–	–	–	–	COc1cccc(CN2CC(C(=O)NCc3cc4ccccc4[nH]3)CCC2=O)c1 (stereo not drawn) [NCGC00449252-01]
0.25	–	–	-27.44	-1.4	–	–	–	COc1ccc(N2CCN(c3nc(C(=O)NCC4CCCCC4)cs3)CC2)cc1 [NCGC00430670-01]
25.1	–	–	-31.39	-2.4	–	–	–	COc1ccc(-n2nc(C)c([C@@H]3C=C[C@@H](NCc4ccccc4)C3)c2C)cc1 [NCGC00391544-01]
14.1	–	–	-68.54	-2.2	–	–	–	COc1cccc(N2CCN(c3nc(C(=O)NCc4cccnc4)cs3)CC2)c1 [NCGC00430684-01]
1.78	–	–	-71.11	-1.2	–	–	–	O=C(NCc1ccccc1Cl)c1csc(N2CCN(c3ccc(F)cc3)CC2)n1 [NCGC00430734-01]
28.2	–	–	-37.07	-2.4	–	–	–	O=C(NCC1CC1)c1csc(N2CCN(c3ccccc3F)CC2)n1 [NCGC00430728-01]
0.71	–	–	-61.67	-1.2	–	–	–	O=C(NCc1cccc(F)c1)c1csc(N2CCN(c3ccc(Cl)cc3)CC2)n1 [Compound 1]

Reference: PMC13266984 (Journal of medicinal chemistry, 2026)
